According to PubChem BioAssay AID2060909 (Molecular Pharmacology Branch, DTP, NCI, 2025):

Tested on: 362531-283-R-J2-PDC complex spheroid viability
Test: Anticancer human tumor 362531-283-R-J2-PDC patient-derived colon adenocarcinoma cell line growth inhibition [RAS]
Conditions: for IC50: curve of first compound; for viability, T/C: stronger effect = lower value; active = viability on the fitted dose curve at most 10% of control; inactive = the rest
In short: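 Tumour cells grown as complex spheroids with HUVEC endothelial cells and mesenchymal stem cells, treated with RAS pathway inhibitor combinations. Each agent spans half-log steps from near clinical Cmax, or 10 microM where Cmax is unknown.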

[1] = second compound 0.0316 µM, first compound 0.00316 µM
[2] = second compound 0.0316 µM, first compound 0.01 µM
[3] = second compound 0.0316 µM, first compound 0.0316 µM
[4] = second compound 0.0316 µM, first compound 0.1 µM
[5] = second compound 0.0316 µM, first compound 0.316 µM
[6] = second compound 0.0316 µM, first compound 1 µM
[7] = second compound 0.1 µM, first compound 0.00316 µM
[8] = second compound 0.1 µM, first compound 0.01 µM
[9] = second compound 0.1 µM, first compound 0.0316 µM
[10] = second compound 0.1 µM, first compound 0.1 µM
[11] = second compound 0.1 µM, first compound 0.316 µM
[12] = second compound 0.1 µM, first compound 1 µM
[13] = second compound 0.316 µM, first compound 0.00316 µM
[14] = second compound 0.316 µM, first compound 0.01 µM
[15] = second compound 0.316 µM, first compound 0.0316 µM
[16] = second compound 0.316 µM, first compound 0.1 µM
[17] = second compound 0.316 µM, first compound 0.316 µM
[18] = second compound 0.316 µM, first compound 1 µM
[19] = second compound 1 µM, first compound 0.00316 µM
[20] = second compound 1 µM, first compound 0.01 µM
[21] = second compound 1 µM, first compound 0.0316 µM
[22] = second compound 1 µM, first compound 0.1 µM
[23] = second compound 1 µM, first compound 0.316 µM
[24] = second compound 1 µM, first compound 1 µM
[25] = second compound 3.16 µM, first compound 0.00316 µM
[26] = second compound 3.16 µM, first compound 0.01 µM
[27] = second compound 3.16 µM, first compound 0.0316 µM
[28] = second compound 3.16 µM, first compound 0.1 µM
[29] = second compound 3.16 µM, first compound 0.316 µM
[30] = second compound 3.16 µM, first compound 1 µM
[31] = second compound 10 µM, first compound 0.00316 µM
[32] = second compound 10 µM, first compound 0.01 µM
[33] = second compound 10 µM, first compound 0.0316 µM
[34] = second compound 10 µM, first compound 0.1 µM
[35] = second compound 10 µM, first compound 0.316 µM
[36] = second compound 10 µM, first compound 1 µM
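Note: spheroids exposed to the agents for 7 days before readout.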
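Throughout, for viability, T/C: luminescence viability as percent of DMSO vehicle control wells.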

C=CC(=O)Nc1cc(Nc2nccc(-c3cn(C)c4ccccc34)n2)c(OC)cc1N(C)CCN(C)C + C#Cc1c(F)ccc2cc(O)cc(-c3ncc4c(N5CC6CCC(C5)N6)nc(OCC56CCCN5CC(F)C6)nc4c3F)c12
110 nM: IC50 (second compound 1 µM)
inactive: viability, T/C [1] 96.8% | viability, T/C [2] 96.6% | viability, T/C [3] 97.7% | viability, T/C [4] 89.7% | viability, T/C [5] 78.1% | viability, T/C [6] 15.8% | viability, T/C [7] 93% | viability, T/C [8] 96.6% | viability, T/C [9] 91.6% | viability, T/C [10] 84.8% | viability, T/C [11] 71.3% | viability, T/C [12] 12.4% | viability, T/C [13] 95.9% | viability, T/C [14] 94.4% | viability, T/C [15] 84.1% | viability, T/C [16] 69.8% | viability, T/C [17] 20.8% | viability, T/C [18] 14.4% | viability, T/C [19] 80.9% | viability, T/C [20] 78.3% | viability, T/C [21] 73% | viability, T/C [22] 53.7% | viability, T/C [23] 19.9% | viability, T/C [24] 14.4% | viability, T/C [25] 63.5% | viability, T/C [26] 66.4% | viability, T/C [27] 55.7% | viability, T/C [28] 38.7% | viability, T/C [29] 16.2% | viability, T/C [30] 13.8% | viability, T/C [31] 57.3% | viability, T/C [32] 41.4% | viability, T/C [33] 32.5% | viability, T/C [34] 22.5% | viability, T/C [35] 17.1% | viability, T/C [36] 13.4%
526 nM: IC50 (second compound 0.0316 µM)
472 nM: IC50 (second compound 0.1 µM)
48.9 nM: IC50 (second compound 3.16 µM)
5.45 nM: IC50 (second compound 10 µM)
158 nM: IC50 (second compound 0.316 µM)

CCN1CCN(Cc2ccc(Nc3ncc(F)c(-c4cc(F)c5nc(C)n(C(C)C)c5c4)n3)nc2)CC1 + C#Cc1c(F)ccc2cc(O)cc(-c3ncc4c(N5CC6CCC(C5)N6)nc(OCC56CCCN5CC(F)C6)nc4c3F)c12
< 3.16 nM: IC50 (second compound 10 µM)
504 nM: IC50 (second compound 0.0316 µM)
104 nM: IC50 (second compound 1 µM)
inactive: viability, T/C [1] 89.4% | viability, T/C [2] 98.7% | viability, T/C [3] 98.8% | viability, T/C [4] 70.3% | viability, T/C [5] 62.4% | viability, T/C [6] 36.9% | viability, T/C [7] 93.7% | viability, T/C [8] 93.6% | viability, T/C [9] 81.4% | viability, T/C [10] 63% | viability, T/C [11] 57.4% | viability, T/C [12] 28.8% | viability, T/C [13] 93.8% | viability, T/C [14] 89.2% | viability, T/C [15] 85.4% | viability, T/C [16] 58.7% | viability, T/C [17] 42% | viability, T/C [18] 21.9% | viability, T/C [19] 86.2% | viability, T/C [20] 88% | viability, T/C [21] 74.1% | viability, T/C [22] 50.5% | viability, T/C [23] 29.8% | viability, T/C [24] 20% | viability, T/C [25] 77.6% | viability, T/C [26] 60.2% | viability, T/C [27] 48.5% | viability, T/C [28] 32.1% | viability, T/C [29] 22.4% | viability, T/C [30] 17% | viability, T/C [31] 45.2% | viability, T/C [32] 42.5% | viability, T/C [33] 30.9% | viability, T/C [34] 23.6% | viability, T/C [35] 16.7% | viability, T/C [36] 12.2%
356 nM: IC50 (second compound 0.1 µM)
24.1 nM: IC50 (second compound 3.16 µM)
187 nM: IC50 (second compound 0.316 µM)

C=CC(=O)Nc1cc(Nc2nccc(-c3cn(C)c4ccccc34)n2)c(OC)cc1N(C)CCN(C)C + CCn1c(-c2cc(N3CCN(C)CC3)cnc2C(C)OC)c2c3cc(ccc31)-c1csc(n1)CC(NC(=O)C1CC1C)C(=O)N1CCCC(N1)C(=O)OCC(C)(C)C2
< 3.16 nM: IC50 (second compound 0.3 µM)
> 1000 nM: IC50 (second compound 0.000949 µM) | IC50 (second compound 0.003 µM)
active: viability, T/C (second compound 0.3 µM, first compound 1 µM) 8.2%
129 nM: IC50 (second compound 0.0949 µM)
464 nM: IC50 (second compound 0.03 µM)
606 nM: IC50 (second compound 0.00949 µM)
inactive: viability, T/C (second compound 0.000949 µM, first compound 0.00316 µM) 87.5% | viability, T/C (second compound 0.000949 µM, first compound 0.01 µM) 104% | viability, T/C (second compound 0.000949 µM, first compound 0.0316 µM) 91.4% | viability, T/C (second compound 0.000949 µM, first compound 0.1 µM) 88% | viability, T/C (second compound 0.000949 µM, first compound 0.316 µM) 98.2% | viability, T/C (second compound 0.000949 µM, first compound 1 µM) 65.6% | viability, T/C (second compound 0.003 µM, first compound 0.00316 µM) 97.7% | viability, T/C (second compound 0.003 µM, first compound 0.01 µM) 94.6% | viability, T/C (second compound 0.003 µM, first compound 0.0316 µM) 94.6% | viability, T/C (second compound 0.003 µM, first compound 0.1 µM) 89.3% | viability, T/C (second compound 0.003 µM, first compound 0.316 µM) 91.9% | viability, T/C (second compound 0.003 µM, first compound 1 µM) 63.1% | viability, T/C (second compound 0.00949 µM, first compound 0.00316 µM) 93.3% | viability, T/C (second compound 0.00949 µM, first compound 0.01 µM) 115% | viability, T/C (second compound 0.00949 µM, first compound 0.0316 µM) 81.1% | viability, T/C (second compound 0.00949 µM, first compound 0.1 µM) 78.9% | viability, T/C (second compound 0.00949 µM, first compound 0.316 µM) 80.4% | viability, T/C (second compound 0.00949 µM, first compound 1 µM) 31.4% | viability, T/C (second compound 0.03 µM, first compound 0.00316 µM) 92.2% | viability, T/C (second compound 0.03 µM, first compound 0.01 µM) 91.8% | viability, T/C (second compound 0.03 µM, first compound 0.0316 µM) 83% | viability, T/C (second compound 0.03 µM, first compound 0.1 µM) 85.6% | viability, T/C (second compound 0.03 µM, first compound 0.316 µM) 69.6% | viability, T/C (second compound 0.03 µM, first compound 1 µM) 11.8% | viability, T/C (second compound 0.0949 µM, first compound 0.00316 µM) 81.3% | viability, T/C (second compound 0.0949 µM, first compound 0.01 µM) 75.4% | viability, T/C (second compound 0.0949 µM, first compound 0.0316 µM) 76.5% | viability, T/C (second compound 0.0949 µM, first compound 0.1 µM) 59.2% | viability, T/C (second compound 0.0949 µM, first compound 0.316 µM) 18.5% | viability, T/C (second compound 0.0949 µM, first compound 1 µM) 10.8% | viability, T/C (second compound 0.3 µM, first compound 0.00316 µM) 42.3% | viability, T/C (second compound 0.3 µM, first compound 0.01 µM) 38.4% | viability, T/C (second compound 0.3 µM, first compound 0.0316 µM) 32.7% | viability, T/C (second compound 0.3 µM, first compound 0.1 µM) 23% | viability, T/C (second compound 0.3 µM, first compound 0.316 µM) 10.8%
